Test systems include A498 renal; A549 NSCLC; HS 578T breast; KM12 colon; LOX IMVI melanoma; MDA-MB-435; NCI-H226 lung; SF-539 CNS; SW-620 colon; UO-31 renal.
Common to all, as to assay: NCI tumour cell line growth inhibition, 48 h

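The compound was tested at five concentrations on cells cultured in 96-well plates, with a 48-hour exposure period. Abbreviation: GI50, concentration required for 50% inhibition of growth. At the TGI there is no net growth.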

In the case of `C=C1C(=O)O[C@H]2[C@H]1CC/C(CNC(=O)/C=C/c1ccc(Br)cc1)=C\CC[C@@]1(C)O[C@@H]21`, the GI50 in the test on A498 renal is 236 nM; in the test with A549 NSCLC, 2430 nM; in the test with HS 578T breast, 1440 nM; in the test on KM12 colon it was 1870 nM; in the test on LOX IMVI melanoma, 594 nM; in the test with MDA-MB-435 it was 632 nM. For the same compound, the GI50 in the test on NCI-H226 lung is 2240 nM; with SF-539 CNS, 873 nM; with SW-620 colon, 444 nM; with UO-31 renal, 970 nM. Also, the TGI in the test with A498 renal turned out to be 2.45 µM; in the test with A549 NSCLC it was 8.72 µM; in the test on HS 578T breast, 4.43 µM; with KM12 colon it was 3.8 µM; with LOX IMVI melanoma, 1860 nM; in the test on MDA-MB-435, 2070 nM. Moreover, the TGI with NCI-H226 lung was determined as 7.15 µM; with SF-539 CNS, 2.28 µM; in the test with SW-620 colon it was 1.77 µM; in the test with UO-31 renal, 2.19 µM.
With `COc1cccc([C@H]2CC(=O)c3cc4c(cc3N2)OCO4)c1`, the GI50 in the test with A498 renal was 265 nM; in the test on A549 NSCLC it was 125 nM; in the test with KM12 colon, 33.6 nM; in the test with LOX IMVI melanoma it was 273 nM; with MDA-MB-435, 17.7 nM; with NCI-H226 lung, 226 nM. For the same compound, the GI50 was 84 nM with SF-539 CNS, 67.6 nM in the test on SW-620 colon and 223 nM in the test on UO-31 renal. The TGI is greater than 100 µM with A498 renal; greater than 100 µM with A549 NSCLC; 83.3 µM in the test with HS 578T breast; 1.25 µM in the test on KM12 colon; greater than 100000 nM with LOX IMVI melanoma; 44 nM in the test on MDA-MB-435. Besides, the TGI with NCI-H226 lung, with SW-620 colon and in the test with UO-31 renal was greater than 100 µM in each case.
Regarding `COc1cc2c(cc1OC)C13CCN4C=C5CCOC6CC(=O)N2C1C6C5CC43` (stereo not drawn), the TGI is greater than 100 µM in the test on A498 renal; greater than 100 µM in the test with A549 NSCLC; greater than 100 µM in the test on HS 578T breast; greater than 100 µM with KM12 colon; greater than 100000 nM in the test with LOX IMVI melanoma; greater than 100000 nM with MDA-MB-435. Also, the TGI with NCI-H226 lung, in the test on SF-539 CNS, in the test on SW-620 colon and in the test with UO-31 renal was greater than 100 µM in each case.
For `COC(=O)[C@@H](NC(=O)NC(=O)NC(=O)CI)C(C)C`, the GI50 in the test on A498 renal is 16700 nM; with A549 NSCLC it was 22400 nM; with HS 578T breast it was 26400 nM; in the test with KM12 colon it was 17400 nM; in the test on LOX IMVI melanoma it was 1690 nM; in the test on MDA-MB-435, 9970 nM. For the same compound, the GI50 with NCI-H226 lung is 16200 nM; in the test on SF-539 CNS, 3920 nM; in the test on SW-620 colon, 2040 nM; in the test on UO-31 renal, 1670 nM. Also, the TGI in the test with A498 renal turned out to be 30.9 µM; with A549 NSCLC it was 41.5 µM; with HS 578T breast it was 74.6 µM; with KM12 colon, 33.8 µM; with LOX IMVI melanoma, 3330 nM; with MDA-MB-435 it was 21700 nM. Also, the TGI with NCI-H226 lung was 38.4 µM; with SF-539 CNS, 14.8 µM; in the test on SW-620 colon, 4.19 µM; in the test on UO-31 renal it was 3.2 µM.
`CC(=O)C1=C(O)C=C2Oc3c(C(=O)/C=C/c4cc(C(F)(F)F)cc(C(F)(F)F)c4)c(O)c(C)c(O)c3[C@]2(C)C1=O`: the GI50 is 457 nM with A498 renal; 666 nM in the test on A549 NSCLC; 861 nM with HS 578T breast; 658 nM in the test with KM12 colon; 511 nM in the test on LOX IMVI melanoma; 587 nM in the test with MDA-MB-435. Besides, the GI50 is 2340 nM with NCI-H226 lung, 1400 nM in the test on SF-539 CNS, 553 nM with SW-620 colon and 438 nM in the test with UO-31 renal. Also, the TGI was 1.42 µM with A498 renal; 4.42 µM in the test on A549 NSCLC; 5.4 µM in the test with HS 578T breast; 3.23 µM in the test with KM12 colon; 1890 nM in the test with LOX IMVI melanoma; 2350 nM in the test with MDA-MB-435. For the same compound, the TGI with NCI-H226 lung came to 5.15 µM; in the test on SF-539 CNS, 4.53 µM; in the test with SW-620 colon, 2.19 µM; in the test on UO-31 renal, 2.05 µM.
As for `Cc1ccccc1NC(=S)Nc1ccccn1`, the GI50 with A498 renal, in the test on A549 NSCLC, in the test on HS 578T breast, in the test on KM12 colon, with LOX IMVI melanoma and with MDA-MB-435 was greater than 100000 nM each time. Also, the GI50 with NCI-H226 lung, in the test on SF-539 CNS, with SW-620 colon and in the test on UO-31 renal was greater than 100000 nM throughout. Moreover, the TGI with A498 renal was greater than 100 µM; with A549 NSCLC, greater than 100 µM; in the test on HS 578T breast it was greater than 100 µM; in the test with KM12 colon, greater than 100 µM; in the test with LOX IMVI melanoma, greater than 100000 nM; with MDA-MB-435 it was greater than 100000 nM. The TGI with NCI-H226 lung, in the test with SF-539 CNS, in the test with SW-620 colon and in the test with UO-31 renal was greater than 100 µM each time.
In the case of `C=C(CNC(=O)Nc1ccc(-c2ccccc2)cc1)c1ccc(C(=O)Nc2ccccc2N)cc1`, the GI50 was 37400 nM in the test on A498 renal; greater than 100000 nM with A549 NSCLC; 81700 nM in the test on HS 578T breast; 10800 nM with KM12 colon; greater than 100000 nM in the test on LOX IMVI melanoma; 89800 nM in the test on MDA-MB-435. The GI50 in the test with NCI-H226 lung, in the test on SF-539 CNS, in the test with SW-620 colon and in the test on UO-31 renal was greater than 100000 nM in each case. The TGI with A498 renal was greater than 100 µM; with A549 NSCLC it was greater than 100 µM; with HS 578T breast, greater than 100 µM; with KM12 colon, greater than 100 µM; in the test on LOX IMVI melanoma, greater than 100000 nM; in the test with MDA-MB-435, greater than 100000 nM. The TGI with NCI-H226 lung, with SF-539 CNS, in the test on SW-620 colon and in the test with UO-31 renal was greater than 100 µM each time.
With `Cc1c2cc[nH]c(=O)c2c(C)c2c1[nH]c1cc(OCCN3CCN(C)CC3)ccc12`, the GI50 in the test with A498 renal was 1300 nM; in the test with A549 NSCLC it was 452 nM; in the test with HS 578T breast, 2010 nM; in the test on KM12 colon, 1190 nM; in the test on LOX IMVI melanoma it was 484 nM; in the test on MDA-MB-435 it was 1060 nM. The GI50 in the test with NCI-H226 lung was 503 nM; with SF-539 CNS it was 1310 nM; in the test with SW-620 colon it was 381 nM; with UO-31 renal it was 1060 nM. The TGI amounted to 2.94 µM in the test with A498 renal; 1.96 µM with A549 NSCLC; 9.23 µM in the test on HS 578T breast; 5.61 µM in the test with KM12 colon; 1900 nM in the test on LOX IMVI melanoma; 2430 nM with MDA-MB-435. In addition, the TGI turned out to be 2.38 µM with NCI-H226 lung, 2.77 µM in the test with SF-539 CNS, 2.48 µM with SW-620 colon and 3.09 µM in the test with UO-31 renal.

(Values after PubChem BioAssay (NCI).)
